Assay results published in patent US20140213513A1 (Sanofi, priority 2012, published 2014).
In brackets after ≈: the same amount, converted by molar mass. Read-outs that look alike come from different tables or passages of the source. *1 amine or outer side, *2 acyl side, *3 side chain or, on linkers, in order; H or OH if unused. Where a SMILES comes first, the peptide text is derived from it. Side-chain parts run from the residue outwards. [ ]: non-standard residue; d: D form. The star is where a group is joined. γGlu = O=C(O)[C@H](CCC(=O)[*:2])N[*:1]; Stearoyl = CCCCCCCCCCCCCCCCCC(=O)*; Palmitoyl = CCCCCCCCCCCCCCCC(=O)*; Aib = CC(C)(N)C(=O)O

Tests used:
[1] = molecular target: T1, human GLP-1 receptor (hGLP-1 R) (Homo sapiens, UniProt P43220); experiment: cAMP response of HEK-293 cells stably expressing human GLP-1 receptor (HTRF); assay type: cell-based; details: Table 7; cAMP formation
T1 construct: expressed in transfected cells
Method in brief: (§1)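 Intracellular cAMP is quantified by HTRF following a 30-minute room-temperature incubation of cell suspensions (400000 cells/ml) with test compound in HBSS, 20 mM HEPES, 0.1% BSA and 2 mM IBMX.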

[2] = Solubility testing in buffer (HPLC-UV of supernatant); assay type: physicochemical
[3] = molecular target: T2, human glucagon receptor (hGLUC R) (Homo sapiens, UniProt P47871); experiment: cAMP response of HEK-293 cells stably expressing human glucagon receptor (HTRF); assay type: cell-based; details: Table 7; cAMP formation
T2 construct: expressed in transfected cells
Method in brief: as §1

[4] = molecular target: T3, human GIP receptor (hGIP R) (Homo sapiens, UniProt P48546); experiment: cAMP response of HEK-293 cells stably expressing human GIP receptor (HTRF); assay type: cell-based; details: Table 7; cAMP formation
T3 construct: expressed in transfected cells
T3 sequence (P48546 22-466): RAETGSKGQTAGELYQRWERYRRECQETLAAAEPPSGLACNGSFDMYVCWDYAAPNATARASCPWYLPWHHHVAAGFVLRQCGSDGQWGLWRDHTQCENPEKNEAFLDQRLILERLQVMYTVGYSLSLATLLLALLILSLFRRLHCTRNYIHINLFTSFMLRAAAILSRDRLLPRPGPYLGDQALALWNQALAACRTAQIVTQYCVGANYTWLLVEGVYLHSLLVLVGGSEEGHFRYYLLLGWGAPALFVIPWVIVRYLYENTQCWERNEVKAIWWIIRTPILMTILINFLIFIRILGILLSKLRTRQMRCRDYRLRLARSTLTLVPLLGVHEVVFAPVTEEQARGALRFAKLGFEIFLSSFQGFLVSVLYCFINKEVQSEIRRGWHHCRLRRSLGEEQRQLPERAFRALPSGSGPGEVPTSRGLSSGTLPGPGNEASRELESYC
Method in brief: as §1

[5] = molecular target: T4, human GIP receptor (human) (UniProt P48546); experiment: cell-based or functional assay
T4 sequence (looked up): T3 sequence (P48546 22-466)

[6] = molecular target: human GLP-1 receptor (human) (UniProt P43220); experiment: cell-based or functional assay
[7] = Pharmacokinetic testing in mice (plasma LC/MS); assay type: in vivo; details: mouse, sc, 1 mg/kg s.c.
Protocol: Mice were dosed 1 mg/kg subcutaneously (s.c.).
Pharmacokinetic profiles were determined as described in Methods.

[8] = pH 4.5, target concentration 1.0 mg/mL, read-out: Solubility (pH 4.5)
[9] = pH 7.4, target concentration 1.0 mg/mL, read-out: Solubility (pH 7.4)

T1 sequence (P43220 24-463): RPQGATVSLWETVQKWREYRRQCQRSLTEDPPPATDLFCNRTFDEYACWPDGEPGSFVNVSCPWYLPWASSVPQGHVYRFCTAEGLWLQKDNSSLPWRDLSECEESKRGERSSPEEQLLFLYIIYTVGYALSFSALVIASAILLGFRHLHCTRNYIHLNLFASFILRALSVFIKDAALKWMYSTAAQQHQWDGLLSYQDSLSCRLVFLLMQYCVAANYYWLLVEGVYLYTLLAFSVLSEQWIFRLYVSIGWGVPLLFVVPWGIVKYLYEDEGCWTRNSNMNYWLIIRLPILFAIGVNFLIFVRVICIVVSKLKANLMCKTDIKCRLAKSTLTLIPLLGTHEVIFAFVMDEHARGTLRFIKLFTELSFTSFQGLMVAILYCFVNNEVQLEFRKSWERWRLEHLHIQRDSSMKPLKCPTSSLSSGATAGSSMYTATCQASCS
T2 sequence (P47871 26-477): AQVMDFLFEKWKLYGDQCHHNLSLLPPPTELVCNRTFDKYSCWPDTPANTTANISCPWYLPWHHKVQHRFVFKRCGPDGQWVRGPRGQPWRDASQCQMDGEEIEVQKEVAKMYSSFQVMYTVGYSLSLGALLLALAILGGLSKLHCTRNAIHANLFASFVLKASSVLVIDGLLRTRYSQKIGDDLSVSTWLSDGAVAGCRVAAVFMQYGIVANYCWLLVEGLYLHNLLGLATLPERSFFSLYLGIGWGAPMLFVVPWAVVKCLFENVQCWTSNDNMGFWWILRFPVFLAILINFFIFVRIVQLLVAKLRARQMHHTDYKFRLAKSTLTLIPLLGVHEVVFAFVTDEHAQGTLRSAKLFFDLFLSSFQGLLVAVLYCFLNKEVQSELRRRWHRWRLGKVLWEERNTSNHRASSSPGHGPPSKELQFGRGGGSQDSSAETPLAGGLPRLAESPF
Chain of human GLP-1 receptor (human) (P43220 24-463): as the sequence (P43220 24-463) above

Row | Compound | EC50 [1] [nM] | solubility at 2 h [2, 8] [µg/mL] | solubility at 2 h [2, 9] [µg/mL] | EC50 [3] [nM] | EC50 [4] [nM] | EC50 hGIP R [5] [nM] | EC50 hGLP-1 R [6] [nM] | Cmax [7] [ng/mL] | half-life [7] [h]
1 | CCCCCCCCCCCCCCCCCC(=O)N[C@@H](CCC(=O)NCCCC[C@H](NC(=O)[C@H](CCC(N)=O)NC(=O)[C@@H](NC(=O)[C@H](CO)NC(=O)[C@H](CC(C)C)NC(=O)[C@H](CC(=O)O)NC(=O)[C@H](CO)NC(=O)[C@@H](NC(=O)[C@H](Cc1ccccc1)NC(=O)[C@@H](NC(=O)CNC(=O)[C@H](Cc1c[nH]cn1)NC(=O)C(C)(C)NC(=O)[C@@H](N)Cc1ccc(O)cc1)[C@@H](C)O)[C@@H](C)O)[C@@H](C)CC)C(=O)N[C@@H](CCC(=O)O)C(=O)N[C@@H](CCCCN)C(=O)N[C@@H](CCCNC(=N)N)C(=O)N[C@@H](C)C(=O)N[C@@H](C)C(=O)NC(C)(C)C(=O)N[C@@H](CCC(=O)O)C(=O)N[C@@H](Cc1ccccc1)C(=O)N[C@H](C(=O)N[C@@H](CCC(=O)O)C(=O)N[C@@H](Cc1c[nH]c2ccccc12)C(=O)N[C@@H](CC(C)C)C(=O)N[C@@H](CCCCN)C(=O)N[C@@H](CC(N)=O)C(=O)N[C@H](C(=O)NCC(=O)N1CCC[C@H]1C(=O)N[C@@H](CO)C(=O)N[C@@H](CO)C(=O)NCC(=O)N[C@@H](C)C(=O)N1CCC[C@H]1C(=O)N1CCC[C@H]1C(=O)N1CCC[C@H]1C(=O)N[C@@H](CO)C(N)=O)[C@@H](C)O)[C@@H](C)CC)C(=O)O [SEQ ID NO: 18, Y-Aib-H-G-T-F-T-S-D-L-S-I-Q-K(yE-x70)-E-K-R-A-A-Aib-E-F-I-E-W-L-K-N-T-G-P-S-S-G-A-P-P-P-S-NH2] (H-Y[Aib]HGTFTSDLSIQK([γGlu-Stearoyl])EKRAA[Aib]EFIEWLKNTGPSSGAPPPS-NH2) | 0.0183 | 966 (≈ 209 µM) | 768 (≈ 166 µM) | 0.0095 | 0.0095 | – | – | – | –
2 | CCCCCCCCCCCCCCCC(=O)N[C@@H](CCC(=O)NCCCC[C@H](NC(=O)[C@H](CCC(N)=O)NC(=O)[C@@H](NC(=O)[C@H](CO)NC(=O)[C@H](CC(C)C)NC(=O)[C@H](CC(=O)O)NC(=O)[C@H](CO)NC(=O)[C@@H](NC(=O)[C@H](Cc1ccccc1)NC(=O)[C@@H](NC(=O)CNC(=O)[C@H](CCC(=O)O)NC(=O)C(C)(C)NC(=O)[C@@H](N)Cc1ccc(O)cc1)[C@@H](C)O)[C@@H](C)O)[C@@H](C)CC)C(=O)N[C@@H](CCC(=O)O)C(=O)N[C@@H](CCC(=O)O)C(=O)N[C@@H](CCCNC(=N)N)C(=O)N[C@@H](C)C(=O)N[C@@H](C)C(=O)N[C@@H](Cc1c[nH]cn1)C(=O)N[C@@H](CCC(=O)O)C(=O)N[C@@H](Cc1ccccc1)C(=O)N[C@H](C(=O)N[C@@H](CCC(=O)O)C(=O)N[C@@H](Cc1c[nH]c2ccccc12)C(=O)N[C@@H](CC(C)C)C(=O)N[C@@H](CCCCN)C(=O)N[C@@H](CCCNC(=N)N)C(=O)NC(C)(C)C(=O)NCC(=O)N1CCC[C@H]1C(=O)N[C@@H](CO)C(=O)N[C@@H](CO)C(=O)NCC(=O)N[C@@H](C)C(=O)N1CCC[C@H]1C(=O)N1CCC[C@H]1C(=O)N1CCC[C@H]1C(=O)N[C@@H](CO)C(N)=O)[C@@H](C)CC)C(=O)O [SEQ ID NO: 37, Y-Aib-E-G-T-F-T-S-D-L-S-I-Q-K(yE-x53)-E-E-R-A-A-H-E-F-I-E-W-L-K-R-Aib-G-P-S-S-G-A-P-P-P-S-NH2] | 0.0066 | > 1000 | > 1000 | 12.1 | 0.0121 | – | – | – | –
3 | CCCCCCCCCCCCCCCC(=O)N[C@@H](CCC(=O)NCCCC[C@H](NC(=O)[C@H](CCC(N)=O)NC(=O)[C@@H](NC(=O)[C@H](CO)NC(=O)[C@H](CC(C)C)NC(=O)[C@H](CC(=O)O)NC(=O)[C@H](CO)NC(=O)[C@@H](NC(=O)[C@H](Cc1ccccc1)NC(=O)[C@@H](NC(=O)CNC(=O)[C@H](CCC(N)=O)NC(=O)C(C)(C)NC(=O)[C@@H](N)Cc1ccc(O)cc1)[C@@H](C)O)[C@@H](C)O)[C@@H](C)CC)C(=O)N[C@@H](CC(=O)O)C(=O)N[C@@H](CCCCN)C(=O)N[C@@H](CCCNC(=N)N)C(=O)N[C@@H](CCCNC(=N)N)C(=O)N[C@@H](C)C(=O)N[C@@H](CCC(N)=O)C(=O)N[C@@H](CC(=O)O)C(=O)N[C@@H](Cc1ccccc1)C(=O)N[C@H](C(=O)N[C@@H](CCC(=O)O)C(=O)N[C@@H](Cc1c[nH]c2ccccc12)C(=O)N[C@@H](CC(C)C)C(=O)N[C@@H](CCCCN)C(=O)N[C@@H](C)C(=O)NCC(=O)NCC(=O)N1CCC[C@H]1C(=O)N[C@@H](CO)C(=O)N[C@@H](CO)C(=O)NCC(=O)N[C@@H](C)C(=O)N1CCC[C@H]1C(=O)N1CCC[C@H]1C(=O)N1CCC[C@H]1C(=O)N[C@@H](CO)C(N)=O)[C@@H](C)CC)C(=O)O [SEQ ID NO: 53, Y-Aib-Q-G-T-F-T-S-D-L-S-I-Q-K(yE-x53)-DKRRAQDFIEWLKAGGPSSGAPPPS-NH2] (H-Y[Aib]QGTFTSDLSIQK([γGlu-Palmitoyl])DKRRAQDFIEWLKAGGPSSGAPPPS-NH2) | 0.0136 | 932 (≈ 203 µM) | 958 (≈ 209 µM) | 0.0079 | 0.0932 | – | – | – | –
4 | CCCCCCCCCCCCCCCCCC(=O)N[C@@H](CCC(=O)NCCCC[C@H](NC(=O)[C@H](CCC(N)=O)NC(=O)[C@@H](NC(=O)[C@H](CO)NC(=O)[C@H](CC(C)C)NC(=O)[C@H](CC(=O)O)NC(=O)[C@H](CO)NC(=O)[C@@H](NC(=O)[C@H](Cc1ccccc1)NC(=O)[C@@H](NC(=O)CNC(=O)[C@H](CCC(=O)O)NC(=O)C(C)(C)NC(=O)[C@@H](N)Cc1ccc(O)cc1)[C@@H](C)O)[C@@H](C)O)[C@@H](C)CC)C(=O)N[C@@H](CCC(=O)O)C(=O)N[C@@H](CO)C(=O)N[C@@H](CCCCN)C(=O)N[C@@H](C)C(=O)N[C@@H](C)C(=O)N[C@@H](CCC(N)=O)C(=O)N[C@@H](CCC(=O)O)C(=O)N[C@@H](Cc1ccccc1)C(=O)N[C@H](C(=O)N[C@@H](CCC(=O)O)C(=O)N[C@@H](Cc1c[nH]c2ccccc12)C(=O)N[C@@H](CC(C)C)C(=O)N[C@@H](CCCCN)C(=O)N[C@@H](C)C(=O)NCC(=O)NCC(=O)N1CCC[C@H]1C(=O)N[C@@H](CO)C(=O)N[C@@H](CO)C(=O)NCC(=O)N[C@@H](C)C(=O)N1CCC[C@H]1C(=O)N1CCC[C@H]1C(=O)N1CCC[C@H]1C(=O)N[C@@H](CO)C(N)=O)[C@@H](C)CC)C(=O)O [SEQ ID NO: 42, Y-Aib-E-G-T-F-T-S-D-L-S-I-Q-K(yE-x70)-ESKAAQEFIEWLKAGGPSSGAPPPS-NH2] (H-Y[Aib]EGTFTSDLSIQK([γGlu-Stearoyl])ESKAAQEFIEWLKAGGPSSGAPPPS-NH2) | 0.0062 | > 1000 | 936 (≈ 208 µM) | 8.47 | 0.0129 | – | – | – | –
5 | Tyr(1)Ile(12)-exendin-4 (peptide) | – | – | – | – | – | 0.0939 | 0.0013 | – | –
6 | CCCCCCCCCCCCCCCC(=O)N[C@@H](CCC(=O)NCCCC[C@H](NC(=O)[C@H](CCC(N)=O)NC(=O)[C@@H](NC(=O)[C@H](CO)NC(=O)[C@H](CC(C)C)NC(=O)[C@H](CC(=O)O)NC(=O)[C@H](CO)NC(=O)[C@@H](NC(=O)[C@H](Cc1ccccc1)NC(=O)[C@@H](NC(=O)CNC(=O)[C@H](CCC(N)=O)NC(=O)C(C)(C)NC(=O)[C@@H](N)Cc1ccc(O)cc1)[C@@H](C)O)[C@@H](C)O)[C@@H](C)CC)C(=O)N[C@@H](CCC(=O)O)C(=O)N[C@@H](CCCCN)C(=O)N[C@@H](CCCNC(=N)N)C(=O)N[C@@H](C)C(=O)N[C@@H](C)C(=O)NC(C)(C)C(=O)N[C@@H](CCC(=O)O)C(=O)N[C@@H](Cc1ccccc1)C(=O)N[C@H](C(=O)N[C@@H](CCC(=O)O)C(=O)N[C@@H](Cc1c[nH]c2ccccc12)C(=O)N[C@@H](CC(C)C)C(=O)N[C@@H](CCCCN)C(=O)N[C@@H](C)C(=O)N[C@H](C)C(=O)NCC(=O)N1CCC[C@H]1C(=O)N[C@@H](CO)C(=O)N[C@@H](CO)C(=O)NCC(=O)N[C@@H](C)C(=O)N1CCC[C@H]1C(=O)N1CCC[C@H]1C(=O)N1CCC[C@H]1C(=O)N[C@@H](CO)C(N)=O)[C@@H](C)CC)C(=O)O [SEQ ID NO: 14, Y-Aib-Q-G-T-F-T-S-D-L-S-I-Q-K(yE-x53)-E-K-R-A-A-Aib-E-F-I-E-W-L-K-A-dAla-G-P-S-S-G-A-P-P-P-S-N H2] | 0.0065 | 1020 (≈ 227 µM) | > 1000 | 0.0623 | 0.0062 | – | – | 5570 | 2.2
